Experimental data from ChEMBL document CHEMBL5331071, “Structure-activity relationship study of amidobenzimidazole derivatives as stimulator of interferon genes (STING) agonists” (Eur J Med Chem, 2023).
Calls of active or inactive are those of the source. The rule behind the calls is not given here.

Columns and labels:
[1] = biological target: T1, Stimulator of interferon genes protein (Mus musculus, UniProt Q3TBT3); assay: Agonist activity at STING in mouse RAW-Lucia ISG cells by luciferase gene reporter assay; type: cell-based
T1 sequence (Q3TBT3 whole entry): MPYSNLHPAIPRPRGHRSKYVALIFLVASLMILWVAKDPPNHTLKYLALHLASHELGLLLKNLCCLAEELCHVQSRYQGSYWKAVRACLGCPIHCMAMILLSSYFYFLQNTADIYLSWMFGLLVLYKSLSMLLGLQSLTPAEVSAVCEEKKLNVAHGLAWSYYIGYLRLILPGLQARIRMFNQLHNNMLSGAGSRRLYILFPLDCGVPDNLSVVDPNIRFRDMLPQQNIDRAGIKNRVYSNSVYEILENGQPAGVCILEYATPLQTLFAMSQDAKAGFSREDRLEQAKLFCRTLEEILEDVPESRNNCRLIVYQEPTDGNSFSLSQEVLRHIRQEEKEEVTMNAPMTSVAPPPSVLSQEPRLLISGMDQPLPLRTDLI

[2] = biological target: T2, Stimulator of interferon genes protein (Homo sapiens, UniProt Q86WV6); assay: Activation of STING signaling pathway in human PBMC cells assessed as increase in IFN-beta mRNA level at 0.1 to 1 uM measured after 4 hrs by qRT-PCR analysis; type: cell-based; conditions: filed as agonist, dose 0.1-1 µM
T2 sequence (Q86WV6 whole entry): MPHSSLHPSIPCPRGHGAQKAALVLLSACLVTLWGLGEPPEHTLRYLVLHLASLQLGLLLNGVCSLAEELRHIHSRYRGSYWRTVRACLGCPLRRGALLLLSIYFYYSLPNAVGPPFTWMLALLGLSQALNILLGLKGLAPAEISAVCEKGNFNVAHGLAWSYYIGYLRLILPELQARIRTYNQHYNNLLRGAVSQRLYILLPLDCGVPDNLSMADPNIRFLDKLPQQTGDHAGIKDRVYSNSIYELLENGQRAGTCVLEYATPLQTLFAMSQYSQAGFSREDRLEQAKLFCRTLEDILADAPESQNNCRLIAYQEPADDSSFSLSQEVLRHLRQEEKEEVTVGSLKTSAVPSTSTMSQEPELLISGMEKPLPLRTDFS

[3] = Metabolic stability in Sprague-Dawley rat plasma assessed as compound remaining measured after 1 hr by LC-MS/MS analysis; type: ADME, cell-free; conditions: read-out: Stability
[4] = biological target: T3, Stimulator of interferon genes protein (Mus musculus) (UniProt Q3TBT3); assay: Activation of STING in mouse RAW264.7 cells assessed as increase in IL-6 expression at 10 to 100 uM incubated for 24 hrs by qRT-PCR analysis; type: cell-based; conditions: dose 10-100 µM
T3 sequence (whole entry): T1 sequence (Q3TBT3 whole entry)

[5] = biological target: T2, Stimulator of interferon genes protein; assay: Activation of STING signalling pathway in human THP1-Dual cells assessed as increase in NF-kappaB-SEAP activation incubated for 24 hrs by QUANTI-Blue reagent based assay; type: cell-based
[6] = biological target: T2, Stimulator of interferon genes protein; assay: Activation of STING signaling pathway in human PBMC cells assessed as increase in IL-6 mRNA level at 0.1 to 1 uM measured after 4 hrs by qRT-PCR analysis; type: cell-based; conditions: filed as agonist, dose 0.1-1 µM
THP1-Dual = assay: Cytotoxicity against human THP1-Dual habouring STING assessed as inhibition of cell growth by MTS assay; type: functional, cell-based
[7] = biological target: T2, Stimulator of interferon genes protein; assay: Activation of STING signalling pathway in human PBMC cells assessed as increase in CXCL10 level incubated for 4 hrs by ELISA method; type: cell-based
[8] = biological target: T2, Stimulator of interferon genes protein; assay: Activation of STING signalling pathway in human wild type THP-1 cells assessed as increase in IRF3 phosphorylation at 10 uM measured after 1 hr by Western blot analysis; type: cell-based; conditions: filed as agonist
[9] = biological target: T2, Stimulator of interferon genes protein; assay: Activation of STING signalling pathway in human PBMC cells assessed as increase in STING phosphorylation at 55.68 uM measured after 1 hr by Western blot analysis; type: cell-based
[10] = biological target: T3, Stimulator of interferon genes protein (Mus musculus); assay: Activation of STING in mouse RAW264.7 cells assessed as increase in CXCL10 expression at 10 to 100 uM incubated for 24 hrs by qRT-PCR analysis; type: cell-based; conditions: dose 10-100 µM
[11] = biological target: T2, Stimulator of interferon genes protein; assay: Activation of STING signaling pathway in human wild type THP-1 cells assessed as increase in IL-6 mRNA level at 50 uM measured after 4 hrs by qRT-PCR analysis; type: cell-based; conditions: filed as agonist
[12] = biological target: T2, Stimulator of interferon genes protein; assay: Activation of STING signaling pathway in human wild type THP-1 cells assessed as increase in CXCL10 mRNA level at 50 uM measured after 4 hrs by qRT-PCR analysis; type: cell-based; conditions: filed as agonist
[13] = Metabolic stability in Sprague-Dawley rat plasma assessed as compound remaining measured after 2 hrs by LC-MS/MS analysis; type: ADME, cell-free; conditions: read-out: Stability
[14] = biological target: T2, Stimulator of interferon genes protein; assay: Agonist activity at STING in human […] KO-STING cells incubated for 20 hrs by Quanti-luc reagent based assay; type: cell-based, THP1-Dual KO-STING
[15] = biological target: T2, Stimulator of interferon genes protein; assay: Activation of STING signalling pathway in human PBMC cells assessed as increase in IFN-beta level incubated for 4 hrs by ELISA method; type: cell-based
[16] = biological target: T2, Stimulator of interferon genes protein; assay: Activation of STING signalling pathway in human wild type THP-1 cells assessed as increase in IFN-beta secretion incubated for 4 hrs by ELISA method; type: cell-based
[17] = biological target: T3, Stimulator of interferon genes protein (Mus musculus); assay: Activation of STING in mouse RAW264.7 cells assessed as increase in TBK1 phosphorylation at 10 to 100 uM incubated for 4 hrs by Western blot analysis; type: cell-based; conditions: dose 10-100 µM
[18] = biological target: T2, Stimulator of interferon genes protein; assay: Activation of STING signalling pathway in human PBMC cells assessed as increase in TBK1 phosphorylation at 10 uM measured after 1 hr by Western blot analysis; type: cell-based; conditions: filed as agonist
[19] = biological target: T2, Stimulator of interferon genes protein; assay: Activation of STING signalling pathway in human THP-1 cells assessed as increase in TNF-alpha level incubated for 4 hrs by ELISA method; type: cell-based; conditions: filed as agonist, dose 3.7-33.3 pg/ml
[20] = biological target: T2, Stimulator of interferon genes protein; assay: Activation of STING signaling pathway in human wild type THP-1 cells assessed as increase in IFN-beta mRNA level at 50 uM measured after 4 hrs by qRT-PCR analysis; type: cell-based; conditions: filed as agonist
[21] = biological target: T2, Stimulator of interferon genes protein; assay: Activation of STING signalling pathway in human PBMC cells assessed as increase in IL-6 level incubated for 4 hrs by ELISA method; type: cell-based
[22] = biological target: T2, Stimulator of interferon genes protein; assay: Activation of STING signaling pathway in human PBMC cells assessed as increase in CXCL10 mRNA level at 0.1 to 1 uM measured after 4 hrs by qRT-PCR analysis; type: cell-based; conditions: filed as agonist, dose 0.1-1 µM
[23] = biological target: T2, Stimulator of interferon genes protein; assay: Activation of STING signalling pathway in human THP-1 cells assessed as increase in CXCL10 level incubated for 4 hrs by ELISA method; type: cell-based; conditions: filed as agonist, dose 0.046-0.421 pg/ml
[24] = biological target: T2, Stimulator of interferon genes protein; assay: Activation of STING signalling pathway in human THP1-Dual cells assessed as increase in IRF-luciferase activation incubated for 24 hrs by QUANTI-luc assay; type: cell-based
[25] = biological target: T2, Stimulator of interferon genes protein; assay: Activation of STING signalling pathway in human wild type THP-1 cells assessed as increase in STING phosphorylation at 10 uM measured after 1 hr by Western blot analysis; type: cell-based; conditions: filed as agonist
[26] = biological target: T2, Stimulator of interferon genes protein; assay: Activation of STING signalling pathway in human PBMC cells assessed as increase in IRF3 phosphorylation at 10 uM measured after 1 hr by Western blot analysis; type: cell-based; conditions: filed as agonist
[27] = Cytotoxicity against human THP1-Dual KO-STING cells assessed as inhibition of cell growth by MTS assay; type: functional, cell-based
[28] = biological target: T2, Stimulator of interferon genes protein; assay: Activation of STING signalling pathway in human PBMC cells assessed as increase in STING phosphorylation at 10 uM measured after 1 hr by Western blot analysis; type: cell-based; conditions: filed as agonist
[29] = biological target: T2, Stimulator of interferon genes protein; assay: Agonist activity at STING in human THP1-Dual cells incubated for 20 hrs by Quanti-luc reagent based assay; type: cell-based
[30] = biological target: T2, Stimulator of interferon genes protein; assay: Activation of STING signalling pathway in human wild type THP-1 cells assessed as increase in TBK1 phosphorylation at 10 uM measured after 1 hr by Western blot analysis; type: cell-based; conditions: filed as agonist
[31] = biological target: T2, Stimulator of interferon genes protein; assay: Activation of STING signalling pathway in human THP-1 cells assessed as increase in IL-6 level incubated for 4 hrs by ELISA method; type: cell-based; conditions: filed as agonist, dose 3.7-33.3 pg/ml
[32] = biological target: T3, Stimulator of interferon genes protein (Mus musculus); assay: Activation of STING in mouse RAW264.7 cells assessed as increase in IRF3 phosphorylation at 10 to 100 uM incubated for 4 hrs by Western blot analysis; type: cell-based; conditions: dose 10-100 µM
[33] = biological target: T3, Stimulator of interferon genes protein (Mus musculus); assay: Activation of STING in mouse RAW264.7 cells assessed as increase in IFN-beta expression at 10 to 100 uM incubated for 24 hrs by qRT-PCR analysis; type: cell-based; conditions: dose 10-100 µM
[34] = Stability in rat plasma assessed as residual of initial concentration at 1 hr; type: ADME, cell-free; conditions: read-out: Stability

CCn1nc(C)cc1C(=O)Nc1nc2cc(C(N)=O)cc(OC)c2n1NCCCC(=O)NCc1ccc(F)cc1
EC50 [1]: > 100 µM
Activity [2]: Active
remaining at 1 h [3]: 78.7%
Activity [4]: inactive
EC50 [5]: 5.5 µM
Activity ([5]; filed as agonist): Dose-Dependent Effect
Activity [6]: Active
IC50 (THP1-Dual): > 100 µM
EC50 [7]: 0.12 µM
Activity ([7]; filed as agonist, dose 0.046-0.412 µM): Dose-Dependent Effect
Activity [8]: Active
Activity [9]: inactive
Activity [10]: inactive
Activity [11]: Active
Activity [12]: Active
remaining at 2 h [13]: 60.5%
EC50 [14]: > 100 µM
EC50 [15]: 0.27 µM
Activity ([15]; filed as agonist, dose 0.137-1.235 µM): Dose-Dependent Effect
EC50 [16]: 4.74 µM
Activity ([16]; filed as agonist): Dose-Dependent Effect
Activity [17]: inactive
Activity [18]: Active
Activity [19]: Dose-Dependent Effect
Activity [20]: Active
EC50 [21]: 0.03 µM
Activity ([21]; filed as agonist, dose 0.006-0.16 µM): Dose-Dependent Effect
Activity [22]: Active
Activity [23]: Dose-Dependent Effect
EC50 [24]: 3.2 µM
Activity ([24]; filed as agonist): Dose-Dependent Effect
Activity [25]: Active
Activity [26]: Active
IC50 [27]: > 100 µM
Activity [28]: Active
EC50 [29]: 1.58 µM
Activity [30]: Active
Activity [31]: Dose-Dependent Effect
Activity [32]: inactive
Activity [33]: inactive

CCn1nc(C)cc1C(=O)Nc1nc2cc(C(N)=O)cc(OCCCOC)c2n1CCCNC(=O)OCc1ccccc1
remaining at 1 h [34]: 36.4%

CCn1nc(C)cc1C(=O)Nc1nc2cc(C(N)=O)cc(OC)c2n1C/C=C/CNc1ncc(C(N)=O)cn1
IC50 (THP1-Dual): > 100 µM
EC50 [14]: > 100 µM
IC50 [27]: > 100 µM
EC50 [29]: > 100 µM

CCn1nc(C)cc1C(=O)Nc1nc2cc(C(N)=O)cc(OCCCOC)c2n1NCCCNC(=O)c1ccc2ccccc2c1
IC50 (THP1-Dual): 10.6 µM
EC50 [14]: > 100 µM
IC50 [27]: 14.8 µM
EC50 [29]: 0.53 µM

CCn1nc(C)cc1C(=O)Nc1nc2cc(C(N)=O)cc(OC)c2n1CCCN1CCC(NC(=O)c2ccc3ccccc3c2)CC1
IC50 (THP1-Dual): > 100 µM
EC50 [14]: > 100 µM
IC50 [27]: > 100 µM
EC50 [29]: > 100 µM

CCn1nc(C)cc1C(=O)Nc1nc2cc(C(N)=O)cc(OC)c2n1C/C=C/CNC(=O)Cc1ccc(C(F)(F)F)cc1
IC50 (THP1-Dual): > 100 µM
EC50 [14]: > 100 µM
IC50 [27]: > 100 µM
EC50 [29]: > 100 µM

CCn1nc(C)cc1C(=O)Nc1nc2cc(C(N)=O)cc(OC)c2n1C/C=C/CNC(=O)c1ccc(C(F)(F)F)cc1
IC50 (THP1-Dual): > 100 µM
EC50 [14]: > 100 µM
IC50 [27]: > 100 µM
EC50 [29]: > 100 µM

CCn1nc(C)cc1C(=O)Nc1nc2cc(C(N)=O)cc(OC)c2n1NCCCC(=O)NCc1ccc(C(F)(F)F)cc1
IC50 (THP1-Dual): > 100 µM
EC50 [14]: > 100 µM
IC50 [27]: > 100 µM
EC50 [29]: 13 µM

CCn1nc(C)cc1C(=O)Nc1nc2cc(C(N)=O)cc(OC)c2n1C/C=C/CNC(=O)c1ccc(Cl)cc1
IC50 (THP1-Dual): > 100 µM
EC50 [14]: > 100 µM
IC50 [27]: > 100 µM
EC50 [29]: > 100 µM

CCn1nc(C)cc1C(=O)Nc1nc2cc(C(N)=O)cc(OC)c2n1NCCCC(=O)NCc1ccc(Cl)cc1C(F)(F)F
IC50 (THP1-Dual): > 100 µM
EC50 [14]: > 100 µM
IC50 [27]: > 100 µM
EC50 [29]: > 100 µM

CCn1nc(C)cc1C(=O)Nc1nc2cc(C(N)=O)cc(OC)c2n1C/C=C/Cn1c(C)nc2cc(C(N)=O)ccc21
IC50 (THP1-Dual): > 100 µM
EC50 [14]: > 100 µM
IC50 [27]: > 100 µM
EC50 [29]: > 100 µM
